Test results from ChEMBL document CHEMBL1132960, “Consensus bioactive conformation of cyclic GnRH antagonists defined by NMR and molecular modeling” (J Med Chem, 2000).
One block for each compound: values may come before it. Where a SMILES comes first, the peptide text is derived from it. Bridges are numbered along the chain shown (N, C = ends). [ ]: non-standard residue; d: D form. dPhe(4-Cl) = N[C@H](Cc1ccc(Cl)cc1)C(=O)O; d2Nal = N[C@H](Cc1ccc2ccccc2c1)C(=O)O; d3Pal = N[C@H](Cc1cccnc1)C(=O)O; NMeL = CN[C@@H](CC(C)C)C(=O)O; ΔPro = O=C(O)[C@@H]1C=CCN1; Dab = NCC[C@H](N)C(=O)O; Dap = NC[C@H](N)C(=O)O; βAla = NCCC(=O)O

Tests used:
Rattus norvegicus [1] = organism: Rattus norvegicus; assay: Number of rats ovulating over total at a dose of 5 ug/rat (2/8); type: functional
Rattus norvegicus [2] = organism: Rattus norvegicus; assay: Number of rats ovulating over total at a dose of 1000 ug/rat (5/8); type: functional
Rattus norvegicus [3] = organism: Rattus norvegicus; assay: Number of rats ovulating over total at a dose of 5 ug/rat (3/20); type: functional
[4] = target: T1, Gonadotropin-releasing hormone receptor (Homo sapiens, UniProt P30968); assay: Binding affinity towards Gonadotropin-releasing hormone receptor
T1 sequence (P30968 whole entry): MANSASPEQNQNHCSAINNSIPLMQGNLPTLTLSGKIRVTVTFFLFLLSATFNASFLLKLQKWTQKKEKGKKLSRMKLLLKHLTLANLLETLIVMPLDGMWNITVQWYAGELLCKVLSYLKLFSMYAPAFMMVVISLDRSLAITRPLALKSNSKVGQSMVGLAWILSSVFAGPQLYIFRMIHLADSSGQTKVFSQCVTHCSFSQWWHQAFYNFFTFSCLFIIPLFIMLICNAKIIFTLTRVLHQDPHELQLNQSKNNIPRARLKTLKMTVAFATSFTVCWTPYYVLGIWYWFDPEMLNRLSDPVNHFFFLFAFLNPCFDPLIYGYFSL

Rattus norvegicus [5] = organism: Rattus norvegicus; assay: Number of rats ovulating over total at a dose of 2.5 ug/rat (2/8); type: functional
Rattus norvegicus [6] = organism: Rattus norvegicus; assay: Number of rats ovulating over total at a dose of 10 ug/rat (2/20); type: functional

SMILES: CC(=O)N[C@H](Cc1ccc2ccccc2c1)C(=O)N[C@H](Cc1ccc(Cl)cc1)C(=O)N[C@H](Cc1cccnc1)C(=O)N[C@H]1CC(=O)NC[C@@H](C(N)=O)NC(=O)[C@@H]2CCCN2C(=O)[C@@H]2CCNC(=O)CNC(=O)CC[C@H](NC1=O)C(=O)N[C@H](CCCN=C(N)N)C(=O)N[C@@H](CC(C)C)C(=O)N2 (Ac-[d2Nal][dPhe(4-Cl)][d3Pal]DE[dR]L[Dab]P[Dap]-NH2; lactam 4-10; linker 5-8 via G) [listing 1 of 2 here]
No. of rats (Rattus norvegicus [1]): 2

SMILES: CC(C)C[C@H]1C(=O)N[C@@H](CCCN=C(N)N)C(=O)N2CCC[C@H]2C(=O)NCCC(=O)N2CC=C[C@H]2C(=O)N[C@H](Cc2ccc(Cl)cc2)C(=O)N[C@H](Cc2c[nH]c3ccccc23)C(=O)N[C@@H](CO)C(=O)N[C@@H](Cc2ccc(O)cc2)C(=O)N[C@H](Cc2c[nH]c3ccccc23)C(=O)N1C (cyclo([NMeL]RP[βAla][ΔPro][dPhe(4-Cl)][dW]SY[dW]))
No. of rats (Rattus norvegicus [2]): 5

SMILES: CC(=O)N[C@H](Cc1ccc2ccccc2c1)C(=O)N[C@H](Cc1ccc(Cl)cc1)C(=O)N[C@H](Cc1c[nH]c2ccccc12)C(=O)N[C@H]1CC(=O)NC[C@@H](C(N)=O)NC(=O)[C@@H]2CCCN2C(=O)[C@@H]2CCCCNC(=O)CC[C@H](NC1=O)C(=O)N[C@H](CCCN=C(N)N)C(=O)N[C@@H](CC(C)C)C(=O)N2 (Ac-[d2Nal][dPhe(4-Cl)][dW]DE[dR]LKP[Dap]-NH2; lactam 4-10, 5-8) [listing 1 of 2 here]
No. of rats (Rattus norvegicus [3]): 3

Ki [4]: 0.32 nM
SMILES: CC(=O)N[C@H](Cc1ccc2ccccc2c1)C(=O)N[C@H](Cc1ccc(Cl)cc1)C(=O)N[C@H](Cc1c[nH]c2ccccc12)C(=O)N[C@H]1CC(=O)NC[C@@H](C(N)=O)NC(=O)[C@@H]2CCCN2C(=O)[C@@H]2CCCCNC(=O)CC[C@H](NC1=O)C(=O)N[C@H](CCCN=C(N)N)C(=O)N[C@@H](CC(C)C)C(=O)N2 (Ac-[d2Nal][dPhe(4-Cl)][dW]DE[dR]LKP[Dap]-NH2; lactam 4-10, 5-8) [listing 2 of 2 here]

SMILES: CC(=O)N[C@H]1CCC(=O)NCC(=O)NCC[C@@H]2NC(=O)[C@H](CC(=O)NC[C@@H](C(N)=O)NC(=O)[C@@H]3CCCN3C(=O)[C@H](CCCN=C(N)N)NC(=O)[C@H](CC(C)C)NC(=O)[C@@H](Cc3ccc4ccccc4c3)NC2=O)NC(=O)[C@@H](Cc2c[nH]c3ccccc23)NC(=O)[C@@H](Cc2ccc(Cl)cc2)NC1=O
No. of rats (Rattus norvegicus [5]): 2

SMILES: CC(=O)N1CC=C[C@H]1C(=O)N[C@H](Cc1ccc(F)cc1)C(=O)N[C@H](Cc1c[nH]c2ccccc12)C(=O)N[C@H]1CC(=O)NC[C@@H](C(N)=O)NC(=O)[C@@H]2CCCN2C(=O)[C@H](CCCN=C(N)N)NC(=O)[C@H](CC(C)C)NC(=O)[C@@H](Cc2ccc3ccccc3c2)NC(=O)[C@H](Cc2ccc(O)cc2)NC1=O
No. of rats (Rattus norvegicus [6]): 2

Ki [4]: 0.14 nM
SMILES: CC(=O)N[C@H](Cc1ccc2ccccc2c1)C(=O)N[C@H](Cc1ccc(Cl)cc1)C(=O)N[C@H](Cc1cccnc1)C(=O)N[C@H]1CC(=O)NC[C@@H](C(N)=O)NC(=O)[C@@H]2CCCN2C(=O)[C@@H]2CCNC(=O)CNC(=O)CC[C@H](NC1=O)C(=O)N[C@H](CCCN=C(N)N)C(=O)N[C@@H](CC(C)C)C(=O)N2 (Ac-[d2Nal][dPhe(4-Cl)][d3Pal]DE[dR]L[Dab]P[Dap]-NH2; lactam 4-10; linker 5-8 via G) [listing 2 of 2 here]
